# Data published in patent US20050197338A1, “Substituted pyrazole urea compounds for the treatment of inflammation” (priority 2003, published 2005).
# Target: T1, Rat IKK-2 (Rattus norvegicus, UniProt Q9QY78)
# T1 sequence (Q9QY78 1-757): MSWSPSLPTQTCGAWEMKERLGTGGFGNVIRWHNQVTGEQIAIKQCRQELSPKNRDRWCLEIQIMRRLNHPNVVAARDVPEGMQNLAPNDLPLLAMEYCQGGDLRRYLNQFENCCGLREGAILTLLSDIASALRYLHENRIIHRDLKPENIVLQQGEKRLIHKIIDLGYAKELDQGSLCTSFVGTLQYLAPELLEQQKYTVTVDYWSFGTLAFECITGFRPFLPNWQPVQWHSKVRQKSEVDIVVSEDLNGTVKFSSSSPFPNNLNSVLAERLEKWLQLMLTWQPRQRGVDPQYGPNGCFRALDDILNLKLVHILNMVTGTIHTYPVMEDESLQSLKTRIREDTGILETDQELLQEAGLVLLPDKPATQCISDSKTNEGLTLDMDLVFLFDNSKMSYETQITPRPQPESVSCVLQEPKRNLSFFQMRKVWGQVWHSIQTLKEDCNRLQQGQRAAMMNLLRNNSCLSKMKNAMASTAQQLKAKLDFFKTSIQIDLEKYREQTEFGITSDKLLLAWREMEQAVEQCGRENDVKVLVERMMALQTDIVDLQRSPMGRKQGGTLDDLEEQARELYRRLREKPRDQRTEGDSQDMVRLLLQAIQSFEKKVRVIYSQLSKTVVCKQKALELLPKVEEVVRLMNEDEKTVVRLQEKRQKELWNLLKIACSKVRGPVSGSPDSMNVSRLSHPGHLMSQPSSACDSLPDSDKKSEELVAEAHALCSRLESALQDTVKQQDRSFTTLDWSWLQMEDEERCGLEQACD
# Experiment: Rat IKK-2 enzyme assay
# Type: biochemical
# Conditions: read-out: IC50 (μM) rIKK-2
# Description: Kinase activity was measured using a biotinylated […] peptide (Gly-Leu-Lys-Lys-Glu-Arg-Leu-Leu-Asp-Asp-Arg-His-Asp-Ser32-Gly-Leu-Asp-Ser36-Met-Lys-Asp-Glu-Glu) (American Peptide Co.). 20 μL of the standard reaction mixture contained 5 μM biotinylated IκBα peptide, 0.1 μCi/reaction [γ-^33P] ATP (Amersham) (about 1×10^5 cpm), 1 μM ATP (Sigma), 1 mM DTT (Sigma), 2 mM MgCl2 (Sigma), 2 mM MnCl2 (Sigma), 10 mM NaF (Sigma), 25 mM Hepes (Sigma) buffer, pH. 7.6 and 20 μL enzyme solution (50 nM/rxn or 200 ng/rxn) and 10 μL inhibitor in a final volume of 50 μL. After incubation at 25° C. for 60 min, 150 μL resin was added to each well to stop the reaction. Resin was mixed and allowed to settle for 1 h and 50 μL of supernatant was removed to a Micolite 2 flat bottom plate (Dynex). 150 μL of scintillation fluid (Microscint 40) (Packard) was added to each well. Incorporation of [γ-^33P] ATP was measured using a Top-Count NXT (Packard).
row,IC50,Structure (SMILES)
1,0.108 µM,"NC(=O)Nc1cn(-c2ccc(Br)c(C(F)(F)F)c2)nc1C(N)=O [Example 1, 4-[(aminocarbonyl)amino]-1-[4-bromo-3-(trifluoromethyl)phenyl]-1H-pyrazole-3-carboxamide]"
2,0.787 µM,"CCOc1cc(-n2cc(NC(N)=O)c(C(N)=O)n2)ccc1Br [Example 3, 4-[(aminocarbonyl)amino]-1-(4-bromo-3-ethoxyphenyl)-1H-pyrazole-3-carboxamide]"
3,1.93 µM,"Cc1cc(I)ccc1-n1cc(NC(N)=O)c(C(N)=O)n1 [Example 4, 1-(4-iodo-2-methyl-phenyl)-4-ureido-1H-pyrazole-3-carboxylic acid amide]"
4,3.71 µM,"Cc1cc(-c2cccc(O)c2)ccc1-n1cc(NC(N)=O)c(C(N)=O)n1 [Example 5, 4-[(aminocarbonyl)amino]-1-(3′-hydroxy-3-methyl-1,1′-biphenyl-4-yl)-1H-pyrazole-3-carboxamide]"
5,0.121 µM,"NC(=O)Nc1cn(-c2ccc(-c3cccc(O)c3)c(Cl)c2)nc1C(N)=O [Example 7, 4-[(aminocarbonyl)amino]-1-(2-chloro-3′-hydroxy-1,1′-biphenyl-4-yl)-1H-pyrazole-3-carboxamide]"
6,0.089 µM,"Cc1cc(-n2cc(NC(N)=O)c(C(N)=O)n2)ccc1I [Example 8, 1-(4-iodo-3-methyl-phenyl)-4-ureido-1H-pyrazole-3-carboxylic acid amide]"
7,4.45 µM,"CNC(=O)Nc1cn(-c2cccc(Br)c2)nc1C(N)=O [Example 15, 1-(3-bromophenyl)-4-{[(methylamino)carbonyl]amino}-1H-pyrazole-3-carboxamide]"
8,2.83 µM,"CNC(=O)Nc1cn(-c2ccc(Br)cc2)nc1C(N)=O [Example 16, 1-(4-bromophenyl)-4-{[(methylamino)carbonyl]amino}-1H-pyrazole-3-carboxamide]"
9,0.352 µM,"NC(=O)Nc1cn(-c2ccc(Br)cc2)nc1C(N)=O [Example 19, 1-(1-(4-bromophenyl)-3-carbamoyl-1H-pyrazol-4-yl)urea]"
10,2.66 µM,"NC(=O)Nc1cn(-c2cccc(-c3ccc(F)cc3O)c2)nc1C(N)=O [Example 92, 4-[(aminocarbonyl)amino]-1-(4′-fluoro-2′-hydroxy-1,1′-biphenyl-3-yl)-1H-pyrazole-3-carboxamide]"
11,1.82 µM,"NC(=O)Nc1cn(-c2cccc(-c3cc(F)ccc3O)c2)nc1C(N)=O [Example 93, 4-[(aminocarbonyl)amino]-1-(5′-fluoro-2′-hydroxy-1,1′-biphenyl-3-yl)-1H-pyrazole-3-carboxamide]"
12,0.22 µM,"N#CCOc1ccc(F)cc1-c1cccc(-n2cc(NC(N)=O)c(C(N)=O)n2)c1 [Example 94, 4-[(aminocarbonyl)amino]-1-[2′-(cyanomethoxy)-5′-fluoro-1,1′-biphenyl-3-yl]-1H-pyrazole-3-carboxamide]"
13,0.18 µM,"NC(=O)Nc1cn(-c2ccc(-c3ccc(C(=O)O)c(F)c3)cc2)nc1C(N)=O [Example 97, 4′-{3-(aminocarbonyl)-4-[(aminocarbonyl)amino]-1H-pyrazol-1-yl}-3-fluoro-1,1′-biphenyl-4-carboxylic acid]"
14,0.668 µM,"NC(=O)Nc1cn(-c2ccc(-c3ccc(F)cc3O)cc2)nc1C(N)=O [Example 98, 4-[(aminocarbonyl)amino]-1-(4′-fluoro-2′-hydroxy-1,1′-biphenyl-4-yl)-1H-pyrazole-3-carboxamide]"
15,0.555 µM,"NC(=O)Nc1cn(-c2ccc(-c3cc(F)ccc3O)cc2)nc1C(N)=O [Example 99, 4-[(aminocarbonyl)amino]-1-(5′-fluoro-2′-hydroxy-1,1′-biphenyl-4-yl)-1H-pyrazole-3-carboxamide]"
16,0.171 µM,"N#Cc1ccc(-c2ccc(-n3cc(NC(N)=O)c(C(N)=O)n3)cc2)cc1 [Example 100, 4-[(aminocarbonyl)amino]-1-(4′-cyano-1,1′-biphenyl-4-yl)-1H-pyrazole-3-carboxamide]"

row,IC50,Structure (SMILES)
1,1.89 µM,"NC(=O)Nc1cn(-c2ccc(-c3ccccc3)cc2)nc1C(N)=O [Example 101, 4-[(aminocarbonyl)amino]-1-(1,1′-biphenyl-4-yl)-1H-pyrazole-3-carboxamide]"
2,4 µM,"NC(=O)Nc1cn(-c2ccc(-c3cc4ccccc4[nH]3)cc2)nc1C(N)=O [Example 141, 4-[(aminocarbonyl)amino]-1-[4-(1H-indol-2-yl)phenyl]-1H-pyrazole-3-carboxamide]"
3,7.19 µM,"CN(C)CCN(C)C(=O)c1ccc(-c2ccc(-n3cc(NC(N)=O)c(C(N)=O)n3)cc2)cc1F [Example 160, 4-[(aminocarbonyl)amino]-1-(4′-{[[2-(dimethylamino)ethyl](methyl)amino]carbonyl}-3′-fluoro-1,1′-biphenyl-4-yl)-1H-pyrazole-3-carboxamide]"
4,13.6 µM,"NC(=O)Nc1cn(-c2ccc(-c3ccc(C(=O)OCc4ccccc4F)c(F)c3)cc2)nc1C(N)=O [Example 162, 2-fluorobenzyl 4′-{3-(aminocarbonyl)-4-[(aminocarbonyl)amino]-1H-pyrazol-1-yl}-3-fluoro-1,1′-biphenyl-4-carboxylate]"
5,17.4 µM,"NC(=O)Nc1cn(-c2ccc(-c3ccc(C(=O)OCc4cccc(F)c4)c(F)c3)cc2)nc1C(N)=O [Example 163, 3-fluorobenzyl 4′-{3-(aminocarbonyl)-4-[(aminocarbonyl)amino]-1H-pyrazol-1-yl}-3-fluoro-1,1′-biphenyl-4-carboxylate]"
6,7.27 µM,"NC(=O)Nc1cn(-c2ccc(-c3ccc(C(=O)OCc4ccc(F)cc4)c(F)c3)cc2)nc1C(N)=O [Example 164, 4-fluorobenzyl 4′-{3-(aminocarbonyl)-4-[(aminocarbonyl)amino]-1H-pyrazol-1-yl}-3-fluoro-1,1′-biphenyl-4-carboxylate]"
7,0.033 µM,"N#CCOc1ccc(F)cc1-c1ccc(-n2cc(NC(N)=O)c(C(N)=O)n2)cc1 [Example 172, 4-[(aminocarbonyl)amino]-1-[2′-(cyanomethoxy)-5′-fluoro-1,1′-biphenyl-4-yl]-1H-pyrazole-3-carboxamide]"
8,0.105 µM,"N#CCOc1cc(F)ccc1-c1ccc(-n2cc(NC(N)=O)c(C(N)=O)n2)cc1 [Example 173, 4-[(aminocarbonyl)amino]-1-[2′-(cyanomethoxy)-4′-fluoro-1,1′-biphenyl-4-yl]-1H-pyrazole-3-carboxamide]"
9,2.49 µM,"CC(C)(C)OC(=O)COc1cccc(-c2ccc(-n3cc(NC(N)=O)c(C(N)=O)n3)cc2)c1 [Example 174, tert-butyl [(4′-{3-(aminocarbonyl)-4-[(aminocarbonyl)amino]-1H-pyrazol-1-yl}-1,1′-biphenyl-3-yl)oxy]acetate]"
10,0.181 µM,"NC(=O)COc1cccc(-c2ccc(-n3cc(NC(N)=O)c(C(N)=O)n3)cc2)c1 [Example 175, 4-[(aminocarbonyl)amino]-1-[3′-(2-amino-2-oxoethoxy)-1,1′-biphenyl-4-yl]-1H-pyrazole-3-carboxamide]"
11,0.475 µM,"N#CCCc1cccc(-c2ccc(-n3cc(NC(N)=O)c(C(N)=O)n3)cc2)c1 [Example 186, 4-[(aminocarbonyl)amino]-1-[3′-(2-cyanoethyl)-1,1′-biphenyl-4-yl]-1H-pyrazole-3-carboxamide]"
12,0.441 µM,"NC(=O)Nc1cn(-c2ccc(-c3ccc(-c4nnn[nH]4)cc3)cc2)nc1C(N)=O [Example 187, 4-[(aminocarbonyl)amino]-1-[4′-(1H-tetrazol-5-yl)-1,1′-biphenyl-4-yl]-1H-pyrazole-3-carboxamide]"
13,0.297 µM,"NC(=O)Nc1cn(-c2ccc(S(=O)(=O)C3CCCCC3)cc2)nc1C(N)=O [Example 192, 1-(3-carbamoyl-1-(4-(cyclohexylsulfonyl)phenyl)-1H-pyrazol-4-yl)urea]"
14,0.173 µM,"NC(=O)Nc1cn(-c2ccc(S(=O)(=O)c3ccccc3F)cc2)nc1C(N)=O [Example 194, 1-(1-(4-(2-fluorophenylsulfonyl)phenyl)-3-carbamoyl-1H-pyrazol-4-yl)urea]"
15,0.023 µM,"NC(=O)Nc1cn(-c2ccc(S(=O)(=O)c3ccc(F)cc3)cc2)nc1C(N)=O [Example 204, 1-(1-(4-(4-fluorophenylsulfonyl)phenyl)-3-carbamoyl-1H-pyrazol-4-yl)urea]"
16,0.258 µM,"NC(=O)Nc1cn(-c2ccc(Sc3ccccn3)cc2)nc1C(N)=O [Example 205, 1-(3-carbamoyl-1-(4-(pyridin-2-ylthio)phenyl)-1H-pyrazol-4-yl)urea]"
